Test results: patent publication US20020103141A1, “Antiangiogenic combination therapy for the treatment of cancer” (priority 1998, published 2002)
Structures can show the parent of a compound that is named as a salt. Where two headings read alike, the source gives them in different places.

Key:
COX-2 = molecular target: T1, COX-2 (UniProt P35354); experiment: Fast assay for COX-2 activity (PGE2 ELISA); settings: read-out: COX-2* IC50, recombinant COX-2, PGE2 ELISA, 10 min pre-incubation at 25° C.
T1 sequence (P35354 1-604): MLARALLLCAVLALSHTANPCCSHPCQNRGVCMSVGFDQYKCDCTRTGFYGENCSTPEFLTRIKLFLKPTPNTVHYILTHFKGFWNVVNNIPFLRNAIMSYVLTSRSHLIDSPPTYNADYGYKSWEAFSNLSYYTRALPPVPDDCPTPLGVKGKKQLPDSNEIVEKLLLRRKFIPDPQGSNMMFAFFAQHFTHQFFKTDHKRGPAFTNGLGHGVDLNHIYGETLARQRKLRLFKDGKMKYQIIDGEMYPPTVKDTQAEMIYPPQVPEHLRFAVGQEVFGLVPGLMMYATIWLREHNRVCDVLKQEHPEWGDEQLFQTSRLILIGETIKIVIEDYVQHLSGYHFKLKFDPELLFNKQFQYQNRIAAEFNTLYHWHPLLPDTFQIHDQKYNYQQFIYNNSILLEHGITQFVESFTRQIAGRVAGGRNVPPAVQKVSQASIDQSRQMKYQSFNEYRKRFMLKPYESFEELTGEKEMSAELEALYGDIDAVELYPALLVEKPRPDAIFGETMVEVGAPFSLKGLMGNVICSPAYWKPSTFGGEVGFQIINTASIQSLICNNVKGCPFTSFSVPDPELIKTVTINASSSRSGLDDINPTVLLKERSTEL

COX-1 = COX-1 (UniProt P23219); experiment: Fast assay for COX-1 activity (PGE2 ELISA); settings: read-out: COX-1* IC50, recombinant COX-1, PGE2 ELISA, 10 min pre-incubation at 25° C.
[1] = cited from earlier work
[2] = cited from earlier work; remark: listed apart in the source
[3] = cited from earlier work; remark: listed apart in the source
Lewis Lung tumor cells = experiment: Lewis Lung Model: tumor volume and lung metastasis; format: in vivo, Mice
From the text: The data is expressed as the mean +/−SEM. […] Analysis of lung metastasis is done in all the animals by counting metastasis in a stereomicroscope and by histochemical analysis of consecutive lung sections.

[4] = doses of 15 mg/kg/day, biliary cirrhosis trials; cited from earlier work

| melting point [°C] | IC50 (COX-1) [µM] | Structure (SMILES) | further results |
| --- | --- | --- | --- |
| 229.9 to 230.9 | 1 | Cc1c(Cl)cc2c(c1Cl)OC(C(F)(F)F)C(C(=O)O)=C2 (stereo not shown) [Example 9, 6,8-Dichloro-7-methyl-2-(trifluoromethyl)-2H-1-benzopyran-3-carboxylic acid] | IC50 (COX-2): 0.9 µM |
|  |  | O=C1c2c(c3c4ccc(O)cc4n([C@@H]4O[C@H](CO)[C@@H](O)[C@H](O)[C@H]4O)c3c3[nH]c4cc(O)ccc4c23)C(=O)N1NC(CO)CO [J 107088, 5H-Indolo[2,3-a]pyrrolo[3,4-c]carbazole-5,7(6H)-dione, 12-β-D-glucopyranosyl-12,13-dihydro-2,10-dihydroxy-6-[[2-hydroxy-1-(hydroxymethyl)ethyl]amino]-] | Maximum tolerated dose ([1]; in vivo): 7.5 mg/m2 |
|  |  | CC[C@@]1(O)C(=O)OCc2c1cc1n(c2=O)Cc2cc3c(CN(C)C)c(O)ccc3nc2-1 [Topotecan hydrochloride, (S)-10-((dimethylamino)methyl)-4-ethyl-4,9-dihydroxy-1H-pyrano(3′,4′:6,7)indolizino(1,2-B)quinoline-3,14-(4H,12H)-dione monohydrochloride] | LD10 ([2]; mice, single IV infusion): 75 mg/m^2 |
|  |  | CCc1c2c(nc3ccc(OC(=O)N4CCC(N5CCCCC5)CC4)cc13)-c1cc3c(c(=O)n1C2)COC(=O)[C@]3(O)CC.Cl [Irinotecan hydrochloride, (4S)-4,11-diethyl-4-hydroxy-9-((4-piperidinopiperidino)carbonyloxy)-1H-pyrano(3′,4′:6,7)indolizino(1,2-b)quinoline-3,14(4H,12H)dione hydrochloride] | Lethality in mice [2]: mice: 111 mg/kg; Lethality in rats [3]: in rats: 73 mg/kg |
|  |  | Cc1ccc(-c2cc(C(F)(F)F)nn2-c2ccc(S(N)(=O)=O)cc2)cc1 [Celecoxib, 4-[5-(4-methylphenyl)-3-(trifluoromethyl)-1H-pyrazol-1-yl]-benzenesulfonamide] | size of the metastatic lesions in the lung (Lewis Lung tumor cells; histopathological analysis): dose-dependently reduces the size of the metastasic lesions in the lung; effect on lung metastasis (Lewis Lung tumor cells; lower dose of 160 ppm in the diet): does not affect lung metastasis |
| 240.5 to 241.7 | 365 | Cc1cc2c(cc1Cl)C=C(C(=O)O)C(C(F)(F)F)S2 (stereo not shown) [Example 23, 6-Chloro-7-methyl-2-(trifluoromethyl)-2H-1-benzothiopyran-3-carboxylic acid] |  |
| 211.5 to 213.5 |  | O=C(O)C1=Cc2c(ccc(Cl)c2Cl)OC1C(F)(F)F (stereo not shown) [Example 17, 5,6-Dichloro-2-(trifluoromethyl)-2H-1-benzopyran-3-carboxylic acid] |  |
| 185 to 186 | > 100 | O=C(O)C1=Cc2cc(Br)ccc2NC1C(F)(F)F (stereo not shown) [Example 22, 6-Bromo-1,2-dihydro-2-(trifluoromethyl)-3-quinolinecarboxylic acid] | IC50 (COX-2): 0.4 µM |
| 188 to 192 | > 100 | O=C(O)C1=Cc2cc(I)ccc2NC1C(F)(F)F (stereo not shown) [Example 21, 6-Iodo-1,2-dihydro-2-(trifluoromethyl)-3-quinolinecarboxylic acid] | IC50 (COX-2): 0.8 µM |
|  | 18.8 | O=C(O)C1=Cc2cc(OC(F)(F)F)ccc2OC1C(F)(F)F (stereo not shown) [Example 5, 6-Trifluoromethoxy-2-trifluoromethyl-2H-1-benzopyran-3-carboxylic acid] |  |
| 126.7 to 128.9 |  | O=C(O)C1=Cc2cc(Cl)ccc2O[C@@H]1C(F)(F)F [Example 2, (S)-6-Chloro-2-trifluoromethyl-2H-1-benzopyran-3-carboxylic acid] |  |
|  | 43 | O=C(O)C1=Cc2cc(Cl)ccc2OC1C(F)(F)F (stereo not shown) [Example 1, 6-Chloro-2-trifluoromethyl-2H-1-benzopyran-3-carboxylic acid] | IC50 (COX-2): 0.7 µM |
| 196.1 to 198.3 | 94.6 | O=C(O)C1=Cc2cc(Cl)c(Cl)cc2OC1C(F)(F)F (stereo not shown) [Example 16, 6,7-Dichloro-2-trifluoromethyl-2H-1-benzopyran-3-carboxylic acid] |  |
| 166.3 to 167.9 |  | CSc1ccc2c(c1)C=C(C(=O)O)C(C(F)(F)F)O2 (stereo not shown) [Example 2, 6-(Methylthio)-2-(trifluoromethyl)-2H-1-benzopyran-3-carboxylic acid] |  |
| 173 to 176 | > 100 | O=C(O)C1=Cc2cc(Cl)ccc2N[C@@H]1C(F)(F)F [Example 13, (S)-6-chloro-1,2-dihydro-2-(trifluoromethyl)-3-quinolinecarboxylic acid] | IC50 (COX-2): 0.2 µM |
| 165.6 to 166.8 | 57 | CC(C)(C)c1ccc2c(c1)OC(C(F)(F)F)C(C(=O)O)=C2 (stereo not shown) [Example 15, 7-(1,1-Dimethylethyl)-2-trifluoromethyl-2H-1-benzopyran-3-carboxylic acid] | IC50 (COX-2): 3.6 µM |
| 143.5 to 145.2 |  | O=C(O)C1=Cc2cc(C(F)(F)F)ccc2OC1C(F)(F)F (stereo not shown) [Example 18, 2,6-Bis(trifluoromethyl)-2H-1-benzopyran-3-carboxylic acid] |  |
| 211.3 to 215.7 | > 500 | O=Cc1ccc2c(c1)C=C(C(=O)O)C(C(F)(F)F)O2 (stereo not shown) [Example 7, 6-Formyl-2-(trifluoromethyl)-2H-1-benzopyran-3-carboxylic acid] |  |
|  |  | CC[C@@]1(O)C(=O)OCc2c1cc1n(c2=O)Cc2cc3c(CN(C)C)c(O)ccc3nc2-1 [Topotecan, 1H-Pyrano[3′,4′:6,7]indolizino[1,2-b]quinoline-3,14(4,H,12H)-dione, 10-[(dimethylamino)methyl]-4-ethyl-4,9-dihydroxy-, (S)-] | Maximally tolerated dose ([1]; × 5 d every 3 to 4 wk): dose: 1.5 mg/m^2 |
|  |  | C[C@H](CCC(=O)O)[C@H]1CC[C@H]2[C@@H]3[C@@H](O)C[C@@H]4C[C@H](O)CC[C@]4(C)[C@H]3CC[C@]12C [URSO] | tolerability and toxicity [4]: extremely well tolerated and without toxicity |
|  |  | CC[C@@]1(O)C(=O)OCc2c1cc1n(c2=O)Cc2cc3c([N+](=O)[O-])cccc3nc2-1 [rubitecan, 1H-Pyrano[3′,4′:6,7]indolizino[1,2-b]quinoline-3,14(4H,12H)-dione, -4-ethyl-4-hydroxy-10-nitro-, (S)-] | grade 4 anemia ([1]; % of patients): 29% of; grade 4 thrombocytopenia ([1]; % of patients): penia in 18%.; chemical cystitis, Grade 2 or higher ([1]; occurred at each dose level): (25%),; diarrhea, Grade 2 or higher ([1]; occurred at each dose level): (32%),; nausea and vomiting, Grade 2 or higher ([1]; occurred at each dose level): (54%),; neutropenic sepsis, Grade 2 or higher ([1]; occurred at each dose level): sepsis (21%),; weight loss, Grade 2 or higher ([1]; occurred at each dose level): loss (18%).; Maximum tolerated dose ([1]; over five consecutive days repeated every week): 1.5 mg/ mg/m2/day |
| 187.8 to 188.8 | > 500 | O=C(O)C1=Cc2cc(Cl)ccc2NC1C(F)(F)F (stereo not shown) [Example 12, 6-Chloro-1,2-dihydro-2-(trifluoromethyl)-3-quinolinecarboxylic acid] | IC50 (COX-2): 0.6 µM |
| 222 to 225.3 |  | O=C(O)C1=Cc2cc(Cl)c(Cl)c(Cl)c2OC1C(F)(F)F (stereo not shown) [Example 20, 6,7,8-Trichloro-2-(trifluoromethyl)-2H-1-benzopyran-3-carboxylic acid] |  |
|  | 0.2 | O=C(O)C1=Cc2cc(Cl)cc(Cl)c2SC1C(F)(F)F (stereo not shown) [Example 24, 6,8-Dichloro-2-trifluoromethyl-2H-1-benzothiopyran-3-carboxylic acid] |  |
|  |  | CC[C@@]1(O)C(=O)OCc2c1cc1n(c2=O)Cc2cc3c(N)cccc3nc2-1 [9-aminocamptothecin, 1H-Pyrano[3′,4′:6,7]indolizino[1,2-b]quinoline-3,14(4H,12H)-dione, 10-amino-4-ethyl-4-hydroxy-, (S)-] | Maximum tolerated dose ([1]; in vivo): dose = 45 mug/square metre/hr |
| 223.4 to 225.7 | 9.7 | O=C(O)C1=Cc2cc(Cl)cc(Cl)c2NC1C(F)(F)F (stereo not shown) [Example 14, 6,8-Dichloro-1,2-dihydro-2-(trifluoromethyl)-3-quinolinecarboxylic acid] | IC50 (COX-2): 0.2 µM |
| 134.7 to 136.2 |  | O=C(O)C1=Cc2cc(C(F)F)ccc2OC1C(F)(F)F (stereo not shown) [Example 8, 6-(Difluoromethyl)-2-(trifluoromethyl)-2H-1-benzopyran-3-carboxylic acid] |  |
| 236.2 to 239.3 |  | O=C(O)C1=Cc2c(cc(Cl)c(Cl)c2Cl)OC1C(F)(F)F (stereo not shown) [Example 19, 5,6,7-Trichloro-2-(trifluoromethyl)-2H-1-benzopyran-3-carboxylic acid] |  |
